The values below come from PubChem BioAssay (NCI).

Some test systems named below: HCT-15 colon; OVCAR-3 ovarian; NCI/ADR-RES ovarian; ACHN renal; SF-295 CNS; SNB-75 CNS; SR leukemia; UO-31 renal; K-562 leukemia; HL-60(TB) leukemia.
Holding throughout (experiment): NCI anticancer screen, dose series, 48 h

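Results reflect a 48-hour exposure of cells in 96-well plates to compound at five concentrations. At the GI50, growth is halved. TGI denotes the concentration required for complete inhibition of growth.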 *1 amine or outer side, *2 acyl side, *3 side chain or, on linkers, in order; H or OH if unused. Where a SMILES comes first, the peptide text is derived from it. Bridges are numbered along the chain shown (N, C = ends). [ ]: non-standard residue; d: D form. The star is where a group is joined. X19 = O=C([C@H](N[*:1])c1ccc(O[C@H]2O[C@@H](CO)[C@@H](O)[C@@H](O)[C@H]2O[C@@H]2O[C@H](CO)[C@H](O)[C@H](O)[C@@H]2O)cc1)[*:2]; X18 = NC(=O)[C@@H](O[*:3])[C@H](N[*:1])C(=O)[*:2]; X20 = O=C([C@H](N[*:1])c1ccc(O)c(Cl)c1)[*:2]; d(aThr) = C[C@@H](O)[C@@H](N)C(=O)O; dHpg = N[C@@H](C(=O)O)c1ccc(O)cc1; X17 = CC(C)C/C=C/C=C/C(=O)*; dOrn = NCCC[C@@H](N)C(=O)O

For `CC(C)C/C=C/C=C/C(=O)N[C@@H](CC(N)=O)C(=O)N[C@@H]1C(=O)N[C@H](c2ccc(O)cc2)C(=O)N[C@H](CCCN)C(=O)N[C@H]([C@@H](C)O)C(=O)N[C@H](c2ccc(O)cc2)C(=O)N[C@H](c2ccc(O)cc2)C(=O)N[C@H]([C@H](C)O)C(=O)N[C@H](Cc2ccccc2)C(=O)N[C@H](CCCN)C(=O)N[C@H](c2ccc(O[C@H]3O[C@@H](CO)[C@@H](O)[C@@H](O)[C@H]3O[C@@H]3O[C@H](CO)[C@H](O)[C@H](O)[C@@H]3O)cc2)C(=O)N[C@H]([C@H](C)O)C(=O)N[C@H](c2ccc(O)cc2)C(=O)NCC(=O)N[C@H](CC(C)C)C(=O)N[C@H](C)C(=O)N[C@H](c2ccc(O)c(Cl)c2)C(=O)O[C@@H]1C(N)=O` (X17-N[X18][dHpg][dOrn][d(aThr)][dHpg][dHpg][dT][dF][dOrn][X19][dT][dHpg]G[dL][dA][X20]; ester 2-C), the GI50 with HCT-15 colon was 30.3 µM; with OVCAR-3 ovarian, 46.5 µM; in the assay with NCI/ADR-RES ovarian, 39.5 µM; in the assay with ACHN renal, 68.7 µM; in the assay on SF-295 CNS it was 15.8 µM; in the assay on SNB-75 CNS, 29.4 µM. Further, the GI50 was > 100 µM in the assay with SR leukemia, > 100 µM with UO-31 renal, 36.3 µM with K-562 leukemia and > 100 µM in the assay with HL-60(TB) leukemia. In addition, the TGI in the assay on HCT-15 colon was > 100 µM; in the assay with OVCAR-3 ovarian it was > 100 µM; with NCI/ADR-RES ovarian, > 100 µM; with ACHN renal, > 100 µM; in the assay on SF-295 CNS, 46.1 µM; in the assay on SNB-75 CNS, 79.8 µM. Further, the TGI in the assay on SR leukemia, with UO-31 renal, with K-562 leukemia and in the assay with HL-60(TB) leukemia was > 100 µM each time.

Consider `NC1=NC(c2ccccc2)CC(c2cc(Cl)cc(Br)c2O)=N1` (stereo not given), for which the TGI in the assay on HCT-15 colon came out at 31.1 µM; in the assay with OVCAR-3 ovarian, 30.2 µM; in the assay on NCI/ADR-RES ovarian it was 29.9 µM; with ACHN renal it was 31.5 µM; in the assay on SF-295 CNS it was 23.7 µM; with SNB-75 CNS, 28.3 µM. The TGI is > 100 µM in the assay on SR leukemia, 32.3 µM in the assay on UO-31 renal, 17.4 µM in the assay on K-562 leukemia and 13.2 µM in the assay with HL-60(TB) leukemia.

In the case of `COc1ccccc1N1CCN(C(=O)c2ccc(NS(=O)(=O)c3cccc4cccnc34)cc2)CC1`, the GI50 is > 100 µM in the assay with HCT-15 colon; > 100 µM with OVCAR-3 ovarian; > 100 µM in the assay on NCI/ADR-RES ovarian; > 71 µM in the assay on ACHN renal; > 39 µM in the assay on SF-295 CNS; 10.1 µM in the assay on SNB-75 CNS. Also, the GI50 with SR leukemia, in the assay on UO-31 renal, with K-562 leukemia and in the assay with HL-60(TB) leukemia was > 100 µM each time. Besides, the TGI was > 100 µM with HCT-15 colon; > 100 µM in the assay on OVCAR-3 ovarian; > 100 µM with NCI/ADR-RES ovarian; > 100 µM in the assay on ACHN renal; > 100 µM in the assay with SF-295 CNS; > 53.7 µM with SNB-75 CNS. Further, the TGI in the assay with SR leukemia, in the assay on UO-31 renal, in the assay on K-562 leukemia and with HL-60(TB) leukemia was > 100 µM each time.

Turning to `CC(C)(C)N1CC(OC(N)=O)C1`, the GI50 in the assay with HCT-15 colon, with OVCAR-3 ovarian, in the assay with NCI/ADR-RES ovarian, in the assay with ACHN renal, in the assay on SF-295 CNS and in the assay on SNB-75 CNS was > 100 µM throughout. For the same compound, the GI50 in the assay on SR leukemia, with UO-31 renal, in the assay on K-562 leukemia and in the assay on HL-60(TB) leukemia was > 100 µM each time. For the same compound, the TGI in the assay with HCT-15 colon, in the assay on OVCAR-3 ovarian, in the assay with NCI/ADR-RES ovarian, with ACHN renal, in the assay on SF-295 CNS and with SNB-75 CNS was > 100 µM throughout. For the same compound, the TGI in the assay with SR leukemia, in the assay on UO-31 renal, in the assay with K-562 leukemia and in the assay on HL-60(TB) leukemia was > 100 µM throughout.

For the compound `CCn1cc(C(=O)N/N=C/c2cccc(F)c2)c(=O)c2cc(F)c(N3CCNC(C)C3)c(F)c21` (stereo not given), the GI50 was 1.46 µM in the assay on HCT-15 colon; 1.82 µM in the assay with OVCAR-3 ovarian; 1.81 µM with NCI/ADR-RES ovarian; 1.63 µM in the assay with ACHN renal; 1.8 µM in the assay on SF-295 CNS; 1.52 µM with SNB-75 CNS. The GI50 in the assay on SR leukemia is 1.33 µM; in the assay on UO-31 renal it was 1.46 µM; in the assay with K-562 leukemia, 1.04 µM; with HL-60(TB) leukemia it was 1.88 µM. The TGI in the assay on HCT-15 colon amounted to 2.84 µM; with OVCAR-3 ovarian it was 3.4 µM; in the assay on NCI/ADR-RES ovarian it was 3.41 µM; with ACHN renal, 2.99 µM; in the assay on SF-295 CNS, 3.29 µM; in the assay on SNB-75 CNS, 2.87 µM. Further, the TGI in the assay on SR leukemia was 3.14 µM; in the assay with UO-31 renal it was 2.79 µM; with K-562 leukemia, 2.4 µM; with HL-60(TB) leukemia it was 3.66 µM.

For `CNC(=O)c1cncc(/C=C/c2c(C)cccc2C)c1`, the GI50 in the assay on HCT-15 colon was > 25 µM; in the assay with OVCAR-3 ovarian it was > 25 µM; in the assay with NCI/ADR-RES ovarian it was > 25 µM; in the assay on ACHN renal, 16.3 µM; with SF-295 CNS, > 25 µM; in the assay with SNB-75 CNS, 4.83 µM. The GI50 was > 25 µM in the assay with SR leukemia, 9.29 µM in the assay with UO-31 renal, > 22.3 µM in the assay on K-562 leukemia and > 25 µM in the assay on HL-60(TB) leukemia. The TGI with HCT-15 colon is > 25 µM; in the assay with OVCAR-3 ovarian it was > 25 µM; in the assay with NCI/ADR-RES ovarian, > 25 µM; in the assay on ACHN renal it was > 25 µM; in the assay with SF-295 CNS, > 25 µM; in the assay on SNB-75 CNS, > 18.2 µM. The TGI in the assay on SR leukemia, with UO-31 renal, with K-562 leukemia and in the assay with HL-60(TB) leukemia was > 25 µM in each case.
